Reference: US8603537B2, “Prasugrel containing quickly released stable oral pharmaceutical compositions” (Egis Pharmaceuticals PLC, priority 2012, dated 2013)
Counter-ions that a name gives are not always drawn.

How the values were obtained:
platelet aggregation = settings: administered in the same dose, EP 1 298 132 B1; cited from earlier work
[1] = Solubility of prasugrel base and prasugrel HCl at different pH values; assay type: physicochemical
Text: According to the examples of WO 2008/073759 prasugrel containing pharmaceutical compositions are stabilized by storing the tablets in air-and waterproof packaging. According to WO 2006/135605 the decomposition of prasugrel containing compositions can be reduced in air- and moisture-proof blister filled with inert gas. […] This fact is substantiated by the following Table. It can be seen from the above Table that the solubility of the hydrochloric acid salt of prasugrel is much higher than that of the prasugrel base even in the pH range between 4.5 and 6.8

[2] = EP 2415 774; cited from earlier work
[3] = Storage stability of prasugrel base, related substances by HPLC; assay type: physicochemical
Text: Contrary to the teaching of WO 2011/098536a stable product of appropriate bioavailability is obtained.

[4] = 25 ± 2° C. 60 ± 5% RH, 2 months
[5] = 25 ± 2° C. 60 ± 5% RH, 3 months
[6] = 25 ± 2° C. 60 ± 5% RH, 6 months
[7] = 40 ± 2° C. 75 ± 5% RH, 2 months
[8] = 40 ± 2° C. 75 ± 5% RH, 3 months
[9] = 40 ± 2° C. 75 ± 5% RH, 6 months

SMILES: CC(=O)Oc1cc2c(s1)CCN(C(C(=O)C1CC1)c1ccccc1F)C2 (centres unmarked) [prasugrel HCl]
- Platelet aggregation inhibitory effect compared with the base (platelet aggregation): almost twice higher
- Solubility ([1]; pH 1): 7.8 g/100 ml
- Solubility ([1]; pH 4.5): 0.032 g/100 ml
- Solubility ([1]; pH 6.8): 0.007 g/100 ml

SMILES: CC(=O)Oc1cc2c(s1)CCN(C(C(=O)C1CC1)c1ccccc1F)C2 (centres unmarked) [hydrogen bromide salt]
- Solubility in 0.1N hydrochloric acid compared with the hydrochloric acid salt [2]: more readily soluble

SMILES: CC(=O)Oc1cc2c(s1)CCN(C(C(=O)C1CC1)c1ccccc1F)C2 (centres unmarked) [prasugrel base, 5-/2-cyclopropyl-1-(2-fluoro-phenyl)-2-oxoethyl/-4,5,6,7-tetrahydrothieno/3.2-c/-pyridine-2-yl-acetate]
- Solubility ([1]; Water): 0.0009 g/100 ml
- Solubility ([1]; pH 1): 2.8 g/100 ml
- Solubility ([1]; pH 4.5): 0.0035 g/100 ml
- Solubility ([1]; pH 6.8): 0.001 g/100 ml
- Related substances by HPLC: Any identified impurity, each ([3]; 25 ± 2° C. 60 ± 5% RH, 1 month): 0.05%
- Related substances by HPLC: Any unidentified impurity ([3]; 25 ± 2° C. 60 ± 5% RH, 1 month): <0.05%
- Related substances by HPLC: Dezacetyl impurity ([3]; 25 ± 2° C. 60 ± 5% RH, 1 month): <0.05%
- Related substances by HPLC: Sum of impurities ([3]; 25 ± 2° C. 60 ± 5% RH, 1 month): 0.05%
- Related substances by HPLC: Any identified impurity, each [3, 4]: 0.07%
- Related substances by HPLC: Any unidentified impurity [3, 4]: <0.05%
- Related substances by HPLC: Dezacetyl impurity [3, 4]: <0.05%
- Related substances by HPLC: Sum of impurities [3, 4]: 0.07%
- Related substances by HPLC: Any identified impurity, each [3, 5]: <0.05%
- Related substances by HPLC: Any unidentified impurity [3, 5]: <0.05%
- Related substances by HPLC: Dezacetyl impurity [3, 5]: <0.05%
- Related substances by HPLC: Sum of impurities [3, 5]: <0.05%
- Related substances by HPLC: Any identified impurity, each [3, 6]: <0.05%
- Related substances by HPLC: Any unidentified impurity [3, 6]: <0.05%
- Related substances by HPLC: Dezacetyl impurity [3, 6]: <0.05%
- Related substances by HPLC: Sum of impurities [3, 6]: <0.05%
- Related substances by HPLC: Any identified impurity, each ([3]; 25 ± 2° C. 60 ± 5% RH, Initial): <0.05%
- Related substances by HPLC: Any unidentified impurity ([3]; 25 ± 2° C. 60 ± 5% RH, Initial): <0.05%
- Related substances by HPLC: Dezacetyl impurity ([3]; 25 ± 2° C. 60 ± 5% RH, Initial): <0.05%
- Related substances by HPLC: Sum of impurities ([3]; 25 ± 2° C. 60 ± 5% RH, Initial): <0.05%
- Related substances by HPLC: Any identified impurity, each ([3]; 40 ± 2° C. 75 ± 5% RH, 1 month): <0.05%
- Related substances by HPLC: Any unidentified impurity ([3]; 40 ± 2° C. 75 ± 5% RH, 1 month): <0.05%
- Related substances by HPLC: Dezacetyl impurity ([3]; 40 ± 2° C. 75 ± 5% RH, 1 month): <0.05%
- Related substances by HPLC: Sum of impurities ([3]; 40 ± 2° C. 75 ± 5% RH, 1 month): <0.05%
- Related substances by HPLC: Any identified impurity, each [3, 7]: 0.05%
- Related substances by HPLC: Any unidentified impurity [3, 7]: <0.05%
- Related substances by HPLC: Dezacetyl impurity [3, 7]: <0.05%
- Related substances by HPLC: Sum of impurities [3, 7]: 0.05%
- Related substances by HPLC: Any identified impurity, each [3, 8]: <0.05%
- Related substances by HPLC: Any unidentified impurity [3, 8]: <0.05%
- Related substances by HPLC: Dezacetyl impurity [3, 8]: <0.05%
- Related substances by HPLC: Sum of impurities [3, 8]: <0.05%
- Related substances by HPLC: Any identified impurity, each [3, 9]: <0.05%
- Related substances by HPLC: Any unidentified impurity [3, 9]: <0.05%
- Related substances by HPLC: Dezacetyl impurity [3, 9]: <0.05%
- Related substances by HPLC: Sum of impurities [3, 9]: <0.05%
- Related substances by HPLC: Any identified impurity, each ([3]; 40 ± 2° C. 75 ± 5% RH, Initial): <0.05%
- Related substances by HPLC: Any unidentified impurity ([3]; 40 ± 2° C. 75 ± 5% RH, Initial): <0.05%
- Related substances by HPLC: Dezacetyl impurity ([3]; 40 ± 2° C. 75 ± 5% RH, Initial): <0.05%
- Related substances by HPLC: Sum of impurities ([3]; 40 ± 2° C. 75 ± 5% RH, Initial): <0.05%
- Stability of the base per se on storage ([3]; storage period of 6 months): remains stable
